Data: ChEMBL document CHEMBL5647694, “Novel orally bioavailable EZH1/2 dual inhibitors with greater antitumor efficacy than an EZH2 selective inhibitor” (Cancer Sci, 2017)

Experiments:
[1] = target: AMPK alpha2/beta1/gamma1 (Homo sapiens) (UniProt P54646+P54619+Q9Y478); assay: Inhibition of N-terminal GST-tagged full-length human AMPK alpha2 (1 to 552 residues)/N-terminal GST-tagged human AMPK beta1 (1 to 270 residues)/N-terminal GST-tagged human AMPK gamma1 (1 to 331 residues) expressed in baculovirus-infected Sf21 cells using SAMS peptide as substrate at 1 uM in presence of ATP by Mobility shift assay
[2] = target: BDNF/NT-3 growth factors receptor (Homo sapiens) (UniProt Q16620); assay: Inhibition of N-terminal GST-tagged human TRKB cytoplasmic domain (456 to 822 residues) expressed in baculovirus-infected Sf21 cells using Srctide as substrate at 1 uM in presence of ATP by Mobility shift assay
[3] = target: Tyrosine-protein kinase JAK2 (Homo sapiens) (UniProt O60674); assay: Inhibition of N-terminal His-tagged human JAK2 catalytic domain (826 to 1132 residues) expressed in baculovirus-infected Sf21 cells using Srctide as substrate at 1 uM in presence of ATP by Mobility shift assay
[4] = target: Mitogen-activated protein kinase 10 (Homo sapiens) (UniProt P53779); assay: Inhibition of N-terminal GST-fused full length human JNK3 (1 to 426 residues) expressed in Escherichia coli expression system using Modified ERKtide as substrate at 1 uM in presence of ATP by Mobility shift assay
[5] = target: SRSF protein kinase 1 (Homo sapiens) (UniProt Q96SB4); assay: Inhibition of N-terminal GST-fused full length human SRPK1 (1 to 655 residues) expressed in Escherichia coli expression system using SRPKtide as substrate at 1 uM in presence of ATP by IMAP assay
[6] = target: Ephrin type-A receptor 6 (Homo sapiens) (UniProt Q9UF33); assay: Inhibition of N-terminal GST-fused human EPHA6 cytoplasmic domain (683 to 1130 residues) expressed in baculovirus-infected Sf21 cells using Blk/Lyntide as substrate at 1 uM in presence of ATP by Mobility shift assay
[7] = target: Activated CDC42 kinase 1 (Homo sapiens) (UniProt Q07912); assay: Inhibition of N-terminal GST-fused wild type human ACK catalytic domain (110 to 476 residues) expressed in baculovirus-infected Sf21 cells using WASP peptide as substrate at 1 uM in presence of ATP by Mobility shift assay
[8] = target: Casein kinase I isoform delta (Homo sapiens) (UniProt P48730); assay: Inhibition of N-terminal GST-fused human CK1delta catalytic domain (1 to 294 residues) expressed in Escherichia coli expression system using CKtide as substrate at 1 uM in presence of ATP by Mobility shift assay
[9] = target: 3-phosphoinositide-dependent protein kinase 1 (PDPK1) (Homo sapiens) (UniProt O15530); assay: Inhibition of N-terminal GST-fused full length human PDK1 (1 to 556 residues) expressed in baculovirus expression system using T308tide as substrate at 1 uM in presence of ATP by Mobility shift assay
[10] = target: Ephrin type-A receptor 8 (Homo sapiens) (UniProt P29322); assay: Inhibition of N-terminal GST-fused human EPHA8 catalytic domain (571 to 924 residues) expressed in baculovirus-infected Sf21 cells using Blk/Lyntide as substrate at 1 uM in presence of ATP by Mobility shift assay
[11] = target: Mitogen-activated protein kinase 7 (Homo sapiens) (UniProt Q13164); assay: Inhibition of N-terminal GST-fused human ERK5 catalytic domain (1 to 398 residues) expressed in Escherichia coli expression system using EGFR-derived peptide as substrate at 1 uM in presence of ATP by Mobility shift assay
[12] = target: Death-associated protein kinase 1 (Homo sapiens) (UniProt P53355); assay: Inhibition of N-terminal GST-fused human DAPK1 catalytic domain (1 to 289 residues) expressed in baculovirus expression system using DAPK1tide as substrate at 1 uM in presence of ATP by Mobility shift assay
[13] = target: Ribosomal protein S6 kinase alpha-4 (Homo sapiens) (UniProt O75676); assay: Inhibition of N-terminal GST-fused full length human MSK2 (1 to 772 residues) expressed in baculovirus expression system using Crosstide as substrate at 1 uM in presence of ATP by Mobility shift assay
[14] = target: Dual specificity protein kinase CLK3 (Homo sapiens) (UniProt P49761); assay: Inhibition of N-terminal GST-fused full length human CLK3 (1 to 490 residues) expressed in baculovirus expression system using DYRKtide-F as substrate at 1 uM in presence of ATP by Mobility shift assay
[15] = target: Rho-associated protein kinase 1 (Homo sapiens) (UniProt Q13464); assay: Inhibition of N-terminal GST-fused human ROCK1 catalytic domain (1 to 477 residues) expressed in baculovirus expression system using LIMKtide as substrate at 1 uM in presence of ATP by Mobility shift assay
[16] = target: Aurora kinase A (Homo sapiens) (UniProt O14965); assay: Inhibition of N-terminal GST-fused full length human AurA (1 to 403 residues) expressed in baculovirus-infected Sf21 cells using Kemptide as substrate at 1 uM in presence of ATP by Mobility shift assay
[17] = target: Casein kinase I isoform gamma-1 (Homo sapiens) (UniProt Q9HCP0); assay: Inhibition of N-terminal GST-fused full length human CK1gamma1 (1 to 422 residues) expressed in baculovirus expression system using CKtide as substrate at 1 uM in presence of ATP by Mobility shift assay
[18] = target: Testis-specific serine/threonine-protein kinase 3 (Homo sapiens) (UniProt Q96PN8); assay: Inhibition of N-terminal GST-fused full length human TSSK3 (2 to 268 residues) expressed in baculovirus expression system using GS peptide as substrate at 1 uM in presence of ATP by Mobility shift assay
[19] = target: Calcium/calmodulin-dependent protein kinase type IV (Homo sapiens) (UniProt Q16566); assay: Inhibition of N-terminal GST-tagged full length human CAMK4 (1 to 473 residues) expressed in baculovirus-infected Sf21 cells using GS peptide as substrate at 1 uM in presence of ATP by Mobility shift assay
[20] = target: Serine/threonine-protein kinase TBK1 (Homo sapiens) (UniProt Q9UHD2); assay: Inhibition of N-terminal GST-fused full length human TBK1 (1 to 729 residues) expressed in baculovirus expression system using CKtide as substrate at 1 uM in presence of ATP by Mobility shift assay
[21] = target: Serine/threonine-protein kinase pim-1 (Homo sapiens) (UniProt P11309); assay: Inhibition of N-terminal His-tagged full length human PIM1 (1 to 313 residues) expressed in baculovirus expression system using S6K2 peptide as substrate at 1 uM in presence of ATP by Mobility shift assay
[22] = target: STE20-like serine/threonine-protein kinase (Homo sapiens) (UniProt Q9H2G2); assay: Inhibition of N-terminal GST-fused full length human SLK (1 to 1152 residues) expressed in baculovirus expression system using Moesin-derived peptide as substrate at 1 uM in presence of ATP by Mobility shift assay

## Cc1cc(C)c(CNC(=O)c2cc(Br)c3c(c2C)O[C@@](C)([C@H]2CC[C@H](N(C)C)CC2)O3)c(=O)[nH]1
[1]
  inhibition: -1.2%
[2]
  inhibition: -2.8%
[3]
  inhibition: -4.4%
[4]
  inhibition: -2.9%
[5]
  inhibition: -4.7%
[6]
  inhibition: -3.8%
[7]
  inhibition: 0.2%
[8]
  inhibition: -3%
[9]
  inhibition: -5.4%
[10]
  inhibition: -7%
[11]
  inhibition: -2.5%
[12]
  inhibition: 3.4%
[13]
  inhibition: 0.1%
[14]
  inhibition: -2%
[15]
  inhibition: 3%
[16]
  inhibition: 0.6%
[17]
  inhibition: 0.5%
[18]
  inhibition: 12.1%
[19]
  inhibition: -2.9%
[20]
  inhibition: -4.6%
[21]
  inhibition: 1.3%
[22]
  inhibition: 1.6%

## Cc1cc(C)c(CNC(=O)c2cc(Cl)c3c(c2C)O[C@@](C)([C@H]2CC[C@H](N(C)C)CC2)O3)c(=O)[nH]1 [VALEMETOSTAT]
[1]
  inhibition: -0.7%
[2]
  inhibition: 0.6%
[3]
  inhibition: -4.5%
[4]
  inhibition: -5.8%
[5]
  inhibition: -6.9%
[6]
  inhibition: 0.1%
[7]
  inhibition: -1.2%
[8]
  inhibition: -3.8%
[9]
  inhibition: -5.9%
[10]
  inhibition: -5.3%
[11]
  inhibition: -2.3%
[12]
  inhibition: 14.9%
[13]
  inhibition: -2%
[14]
  inhibition: 1.6%
[15]
  inhibition: -2.5%
[16]
  inhibition: -0.5%
[17]
  inhibition: -1.8%
[18]
  inhibition: 7.3%
[19]
  inhibition: -7.2%
[20]
  inhibition: -2.6%
[21]
  inhibition: 17.1%
[22]
  inhibition: 3.3%
